{"source": "patent US20110189260A1", "about": "“USE OF ZINC CHELATORS TO INHIBIT BIOFILM FORMATION” (UNIVERSITY OF CINCINNATI, priority 2008, published 2011)", "molecules": {"B1": {"name": "MBP-Brpt1.5: soluble Brpt1.5 as a maltose-binding protein (MBP) fusion (protein)", "chain": "VDGDSITSTEEIPFDKKREFDPNLAPGTEKVVQKGEPGTKTITTPTTKNPLTGEKVGEGEPTEKITKQPVDEIVHYGGEQIPQGHKDEFDPNAPVDSKTEVPGKPGVKNPDTGEVVTPPVDDVTKYGPVDGDSITSTEEIPFDKKREFDPNLAPGTEKVVQKGEPGTKTITTPTTKNPLTGEKVGEGKSTEKVTKQPVDEIVEYGPTK", "modifications": "left off: large carriers"}}, "tested_on": "S. epidermidis RP62A biofilms", "test": "RP62A biofilms on polystyrene visualized with crystal violet (FIG. 3A, 3C, 4, 7, 8)", "type": "cell-based", "conditions": "RP62A; for effect of divalent cation salt on biofilm inhibition by DTPA: up to 60 μM salt, FIG. 7", "experimental": "FIG. 3. (A) S. epidermidis RP62A biofilms formed on polystyrene and were visualized with crystal violet; addition of the Zn^2+ chelator DTPA (≧30 μM) inhibits biofilm formation. Representative wells have been scanned (bottom). Untreated (“RP62A”) and vehicle (“HCl”) controls are shown. Error bars show standard deviation (* indicates p<0.05 relative to untreated control; n=3); (B) Methicillin-resistant S. aureus USA300 biofilms form on fibronectin-coated plates but are inhibited by addition of DTPA (≧30 μM). (*: p<0.05; n=4); (C) Addition of 5-20 μM ZnCl2 at a minimal inhibitory dose of DTPA (30 μM) rescues biofilm formation by RP62A.\nFIG. 4. […] (*: p<0.05 relative to RP62A control at the relevant Zn^2+ concentration; n=3); (B) Dose response of biofilm inhibition by MBP-Brpt1.5 at a fixed 1 mM ZnCl2 concentration. (*: p<0.0005; n=3); (C) The “zinc zipper” model for intercellular adhesion in staphylococcal biofilms mediated by zinc-dependent self-association of G5 domains.\nFIG. 7. […] All data at 30 μM DTPA show statistically significant decreases compared to no-treatment control (RP62A). Statistically significant increases over the 0 μM MnCl2/30 μM DTPA datapoint are marked with an asterisk (*).\nTo test the physiological role of Zn^2+-mediated G5 adhesion in the formation of staphylococcal biofilms, both S. epidermidis and S. aureus biofilms were grown in culture in the presence or absence of the Zn^2+ chelator diethylenetriaminepentaacetic acid (DTPA). DTPA was non-toxic at all concentrations tested (up to 100 μM). S. epidermidis strain RP62A formed robust biofilms when cultured in media alone, but biofilm growth was inhibited by non-toxic doses of DTPA (≧30 μM) (FIG. 3A).\nTo determine whether Zn^2+-dependent biofilm formation is specifically dependent upon G5 domain-mediated self-assembly, soluble Brpt1.5 was added to S. epidermidis RP62A biofilms as a maltose-binding protein (MBP) fusion. Because of the higher Zn^2+ concentrations required to induce dimerization in the short construct compared to full-length Aap, inhibition by MBP-Brpt1.5 was tested at Zn^2+ concentrations ranging up to 1 mM. RP62A biofilms were inhibited by soluble MBP-Brpt1.5 in the presence of 0.75 and 1 mM ZnCl2, whereas addition of MBP alone had no effect (FIG. 4A). […] Thus, addition of even a single intact zinc adhesion module in a soluble form is capable of inhibiting biofilm formation, highlighting the role of this domain as a Zn^2+-dependent adhesion module in staphylococcal biofilms.", "note": "Entries after “also recorded” stand apart in the source; their conditions may differ."}
{"molecule": "[Ca+2].[Cl-].[Cl-]", "note": "[CaCl2]", "values": [{"measurement": "effect of divalent cation salt on biofilm inhibition by DTPA", "setting": "30 μM DTPA", "result": "does not reverse; also recorded: no effect"}]}
{"molecule": "[Cl-].[Cl-].[Mg+2]", "note": "[MgCl2]", "values": [{"measurement": "effect of divalent cation salt on biofilm inhibition by DTPA", "setting": "30 μM DTPA", "result": "does not reverse; also recorded: no effect"}]}
{"molecule": "[Cl][Mn][Cl]", "note": "[MnCl2]", "values": [{"measurement": "concentration that effected partial rescue of biofilm formation", "setting": "30 μM DTPA, FIG. 7D", "result": "≥ 10", "unit": "µM"}, {"measurement": "effect of divalent cation salt on biofilm inhibition by DTPA", "setting": "30 μM DTPA", "result": "partial rescue"}]}
{"molecule": "[Cl-].[Cl-].[Sr+2]", "note": "[SrCl2]", "values": [{"measurement": "effect of divalent cation salt on biofilm inhibition by DTPA", "setting": "30 μM DTPA", "result": "does not reverse; also recorded: no effect"}]}
{"molecule": "B1", "values": [{"measurement": "inhibition of biofilms by soluble protein", "setting": "fixed 750 μM ZnCl2, FIG. 8", "result": "Dose-dependent biofilm inhibition"}, {"measurement": "concentration that completely abolished biofilm formation", "setting": "fixed 1 mM ZnCl2, FIG. 4B", "result": "10 to 22", "unit": "µM"}, {"measurement": "inhibition of biofilms by soluble protein", "setting": "in the presence of 0.75-1 mM ZnCl2, FIG. 4A", "result": "inhibits RP62A biofilms in a dose-dependent manner; also recorded: inhibited"}]}
